Measurements from patent publication US20260206761A1, “HETEROARYL-TRIAZOLE COMPOUNDS AS PESTICIDES” (Bayer Aktiengesellschaft, priority 2019, published 2026).

What was measured:
Format in all cases: in vivo
[1] = test system: Rhipicephalus microplus larvae (strain Parkhurst, resistant against synthetic pyrethroids); experiment: Rhipicephalus (Boophilus) microplus in-vitro contact test, larval cattle tick; details: after 48 hours, read-out: activity (efficacy: larvae dead or moribund); for pest or weed control at 100 g/ha: application rate 1 pg/cm^2 (=100 g/ha); for pest or weed control at 500 g/ha: application rate 5 pg/cm^2 (=500 g/ha)
Procedure, shortened: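 Larvae (20-50 per tube) exposed to dry compound film on glass tube walls, 5 μg/cm^2 at 900 ppm, applied from acetone. After 48 h at 27° C./85% RH, tubes tapped and negative geotaxis scored; efficacy as percent dead or moribund larvae.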

[2] = test system: larvae of the southern green stink bug (Nezara viridula); experiment: Nezara viridula spray test; details: 96 h, after 4 days; for mortality at 100 g/ha: application rate 100 g/ha; for mortality at 500 g/ha: application rate 500 g/ha
Procedure, shortened: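 Larva-infested barley (Hordeum vulgare) plants received a spray of test solution prepared from an acetone/DMF concentrate diluted in emulsifier-containing water (1000 ppm). Percent kill read 4 days later; 0% means no stink bugs dead.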

[3] = test system: cattle ticks (Rhipicephalus microplus) strain Parkhurst, SP-resistant; experiment: Rhipicephalus (Boophilus) microplus dip test; details: 168 h, application rate 100 ppm, egg deposition after 7 days, read-out: activity (efficacy: infertile eggs)
Description: Rhipicephalus (Boophilus) microplus—Din Test
Test animal: cattle ticks (Rhipicephalus microplus) strain Parkhurst, SP-resistant
Solvent: dimethyl sulfoxide
To produce a suitable preparation of active compound, 10 mg of active compound are dissolved in 0.5 mL solvent, and the concentrate is diluted with water to the desired concentration.
This compound solution is pipetted into tubes. 8-10 engorged, adult, female cattle ticks (Rhipicephalus microplus) are placed in perforated tubes. These tubes are immersed in the aqueous compound solution until the ticks are completely moistened. After the liquid has drained off, the ticks are transferred to a filter paper in a plastic tray and stored in a climate chamber.
After 7 days egg deposition of fertile eggs is monitored. Eggs where fertility is not visible are stored in a climate chamber till hatching after about 42 days. An efficacy of 100% means all eggs are infertile; 0% means all eggs are fertile.

[4] = test system: brown planthopper (Nilaparvata lugens); experiment: Nilaparvata lugens spray test; details: 96 h, after 4 days; for mortality at 100 g/ha: application rate 100 g/ha; for mortality at 500 g/ha: application rate 500 g/ha
Procedure, shortened: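 Compound dissolved in acetone/dimethylformamide and diluted in water with 1000 ppm alkylarylpolyglycol ether emulsifier. Rice plants sprayed at the test concentration, then infested with brown planthopper; % mortality read after 4 days (100% = all killed, 0% = none).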

[5] = test system: Anopheles funestus strain FUMOZ-R; experiment: Anopheles funestus test (ANPHFU surface treatment & contact assay); details: 24 hours after contact, read-out: efficacy (mortality); for mortality at 4 mg/m2: surface concentration 4 mg/m^2, exposure 30 minutes; for mortality at 20 mg/m2: surface concentration 20 mg/m^2, exposure 30 minutes
Procedure, shortened: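 Compound dissolved in acetone at 2 mg/ml with 2000 ppm RME, pipetted onto glazed tile; acetone evaporated. Adult FUMOZ-R mosquitoes exposed to dried surface for 30 min. Percent mortality scored 24 h after contact.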

[6] = test system: Culex quinquefasciatus strain P00; experiment: Culex quinquefasciatus test (CULXFA surface treatment & contact assay); details: 24 hours after contact, read-out: efficacy (mortality); for mortality at 4 mg/m2: surface concentration 4 mg/m^2, exposure 30 minutes; for mortality at 20 mg/m2: surface concentration 20 mg/m^2, exposure 30 minutes
Procedure, shortened: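 Compound in acetone (2 mg/ml) with 2000 ppm rapeseed oil methyl ester, dried onto glazed tile. Adult mosquitoes exposed to the treated surface for 30 min. Percent mortality scored 24 h after contact.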

[7] = test system: green peach aphid (Myzus persicae); experiment: Myzus persicae spray test; details: 120 h, after 5 days; for mortality at 100 g/ha: application rate 100 g/ha; for mortality at 500 g/ha: application rate 500 g/ha
Procedure, shortened: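 Chinese cabbage leaf disks carrying all instars of M. persicae sprayed with compound in acetone/DMF, diluted in water with 1000 ppm alkylarylpolyglycol ether emulsifier. Percent mortality scored after 5 days (100% = all aphids killed).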

[8] = test system: adult brown dog ticks (Rhipicephalus sanguineus); experiment: Rhipicephalus sanguineus in-vitro contact test, adult brown dog ticks; details: after 48 hours, read-out: activity (efficacy: ticks dead or moribund); for pest or weed control at 100 g/ha: application rate 1 pg/cm^2 (=100 g/ha); for pest or weed control at 5 µg/cm2, 500 g/ha: application rate 5 μg/cm^2 (=500 g/ha)
Procedure, shortened: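 Glass tubes are coated with compound dissolved in acetone, a 900 ppm solution yielding 5 μg/cm^2 on the inner surface. Adult ticks (5-10 per tube) are kept on the dry film at room temperature for 48 h, then those unable to escape 45-50° C heat are counted as dead or moribund.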

| SMILES | pest or weed control at 100 g/ha [1] [%] | mortality at 100 g/ha [2] [%] | mortality at 500 g/ha [2] [%] | pest or weed control at 100 ppm [3] [%] | mortality at 100 g/ha [4] [%] | mortality at 500 g/ha [4] [%] | mortality at 4 mg/m2 [5] [%] | mortality at 20 mg/m2 [5] [%] | pest or weed control at 500 g/ha [1] [%] | mortality at 4 mg/m2 [6] [%] | mortality at 20 mg/m2 [6] [%] | mortality at 100 g/ha [7] [%] | mortality at 500 g/ha [7] [%] | pest or weed control at 100 g/ha [8] [%] | pest or weed control at 5 µg/cm2, 500 g/ha [8] [%] |
| --- | --- | --- | --- | --- | --- | --- | --- | --- | --- | --- | --- | --- | --- | --- | --- |
| C[C@H](NC(=O)c1cc(Cl)cc(S(C)(=O)=O)c1)c1nc(C2CC2)nn1-c1ccc(C#N)cn1 [I-4] | 90 | 100 | 100 | 100 |  |  |  |  |  |  |  |  |  |  |  |
| C[C@H](NC(=O)c1cc(C#N)cc([S+](C)[O-])c1)c1ncnn1-c1ccc(C#N)cn1 (stereo partly drawn) [II-12] | 80 | 100 | 100 |  | 100 | 100 | 80 to 100 | 80 to 100 | 100 | 80 to 100 | 80 to 100 | 90 | 90 |  |  |
| C[C@H](NC(=O)c1cc(C(F)(F)F)cc(S(C)(=O)=O)c1)c1ncnn1-c1ncccn1 [II-13] |  | 100 | 100 | 100 | 100 | 100 | 80 to 100 |  | 80 | 80 to 100 |  | 90 | 100 |  |  |
| Cc1nc([C@H](C)NC(=O)c2cc(C(F)(F)F)n(C)n2)n(-c2ncccn2)n1 [II-25] | 100 | 100 | 100 |  |  | 90 | 80 to 100 | 80 to 100 | 100 | 80 to 100 | 80 to 100 |  | 90 | 100 | 100 |
| C[C@H](NC(=O)c1cc(Cl)cc(S(=O)(=O)C(F)F)c1)c1ncnn1-c1ncccn1 [II-34] | 100 | 100 | 100 |  | 100 | 100 | 80 to 100 | 80 to 100 | 90 | 80 to 100 | 80 to 100 | 100 | 100 | 100 | 100 |
| Cc1nc([C@H](C)NC(=O)c2cc(OC(F)(F)F)cc(C3CC3)c2)n(-c2ccc(C#N)cn2)n1 [II-39] | 100 |  |  | 100 |  |  |  |  | 100 |  | 80 to 100 |  |  | 100 | 100 |
| C[C@H](NC(=O)c1cc(Cl)cc(S(C)(=O)=O)c1)c1ncnn1-c1ncc(OC(F)F)cn1 [II-42] | 100 | 100 |  | 100 |  |  | 80 to 100 | 80 to 100 | 100 | 80 to 100 | 80 to 100 | 90 |  | 100 | 100 |
| C[C@H](NC(=O)c1cc(C(F)(F)F)cc(C2(C#N)CC2)c1)c1ncnn1-c1ccc(C#N)cn1 [II-47] | 100 | 100 |  | 100 |  |  | 80 to 100 | 80 to 100 | 100 |  |  | 100 |  | 100 | 100 |
| C[C@H](NC(=O)c1cc(C(F)(F)F)cc(C2(C#N)CC2)c1)c1ncnn1-c1ccc(Cl)cn1 [II-48] | 100 | 100 |  | 100 |  |  | 80 to 100 | 80 to 100 | 100 |  |  | 100 |  | 100 | 100 |
| Cc1nc([C@H](C)NC(=O)c2cc(C(F)(F)F)cc(C3(C#N)CC3)c2)n(-c2ccc(C#N)cn2)n1 [II-49] | 100 | 100 |  | 100 | 100 |  |  | 80 to 100 | 100 |  |  | 100 |  | 100 | 100 |
